Assay results reported in PubChem BioAssay (NCI).
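Five compound concentrations were applied to cells in 96-well plates for 48 hours; endpoints were derived by simple linear interpolation of the resulting dose-response curve. GI50 = concentration required for 50% inhibition of growth. At the TGI there is no net growth.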

How the values were obtained:
Experiment in all cases: NCI anticancer screen, dose series, 48 h
SF-268 CNS = test system: SF-268 CNS
PC-3 prostate = test system: PC-3 prostate
NCI-H23 lung = test system: NCI-H23 lung
SK-MEL-28 melanoma = test system: SK-MEL-28 melanoma
A549 NSCLC = test system: A549 NSCLC
SF-295 CNS = test system: SF-295 CNS
HOP-62 NSCLC = test system: HOP-62 NSCLC
SF-539 CNS = test system: SF-539 CNS
SNB-75 CNS = test system: SNB-75 CNS
TK-10 renal = test system: TK-10 renal
SN12C renal = test system: SN12C renal
HCT-15 colon = test system: HCT-15 colon
HOP-92 NSCLC = test system: HOP-92 NSCLC
MALME-3M melanoma = test system: MALME-3M melanoma
RPMI-8226 leukemia = test system: RPMI-8226 leukemia
IGROV1 ovarian = test system: IGROV1 ovarian
SK-OV-3 ovarian = test system: SK-OV-3 ovarian
HCT-116 colon = test system: HCT-116 colon
M14 melanoma = test system: M14 melanoma
NCI-H226 lung = test system: NCI-H226 lung
DU-145 prostate = test system: DU-145 prostate
UACC-62 melanoma = test system: UACC-62 melanoma
COLO 205 colon = test system: COLO 205 colon
NCI/ADR-RES ovarian = test system: NCI/ADR-RES ovarian
HT29 colon = test system: HT29 colon
UACC-257 melanoma = test system: UACC-257 melanoma
OVCAR-3 ovarian = test system: OVCAR-3 ovarian
MDA-MB-435 = test system: MDA-MB-435
SK-MEL-2 melanoma = test system: SK-MEL-2 melanoma

Structure (SMILES): CC(C)(C(=O)NCC(F)(F)C(F)(F)F)C(=O)N[C@@H]1C(=O)Nc2ccccc2-c2ccccc21
- GI50 (SF-268 CNS): 67.5 µM
- TGI (SF-268 CNS): > 100 µM
- GI50 (PC-3 prostate): 50.8 µM
- TGI (PC-3 prostate): > 100 µM
- GI50 (NCI-H23 lung): > 67 µM
- TGI (NCI-H23 lung): > 100 µM
- GI50 (SK-MEL-28 melanoma): 42 µM
- TGI (SK-MEL-28 melanoma): > 100 µM
- GI50 (A549 NSCLC): 51.9 µM
- TGI (A549 NSCLC): > 100 µM
- GI50 (SF-295 CNS): 43.7 µM
- TGI (SF-295 CNS): > 100 µM
- GI50 (HOP-62 NSCLC): > 93.4 µM
- TGI (HOP-62 NSCLC): > 100 µM
- GI50 (SF-539 CNS): > 84.8 µM
- TGI (SF-539 CNS): > 100 µM
- GI50 (SNB-75 CNS): 21.6 µM
- TGI (SNB-75 CNS): > 100 µM
- GI50 (TK-10 renal): > 100 µM
- TGI (TK-10 renal): > 100 µM
- GI50 (SN12C renal): > 85 µM
- TGI (SN12C renal): > 100 µM
- GI50 (HCT-15 colon): 51.3 µM
- TGI (HCT-15 colon): > 100 µM
- GI50 (HOP-92 NSCLC): 39.2 µM
- TGI (HOP-92 NSCLC): > 100 µM
- GI50 (MALME-3M melanoma): > 61.9 µM
- TGI (MALME-3M melanoma): > 100 µM
- GI50 (RPMI-8226 leukemia): 54.5 µM
- TGI (RPMI-8226 leukemia): > 100 µM
- GI50 (IGROV1 ovarian): > 71.6 µM
- TGI (IGROV1 ovarian): > 100 µM
- GI50 (SK-OV-3 ovarian): 99 µM
- TGI (SK-OV-3 ovarian): > 100 µM
- GI50 (HCT-116 colon): 46.1 µM
- TGI (HCT-116 colon): > 100 µM
- GI50 (M14 melanoma): 38.8 µM
- TGI (M14 melanoma): > 100 µM
- GI50 (NCI-H226 lung): 30.1 µM
- TGI (NCI-H226 lung): > 100 µM
- GI50 (DU-145 prostate): > 87.2 µM
- TGI (DU-145 prostate): > 100 µM
- GI50 (UACC-62 melanoma): 29.2 µM
- TGI (UACC-62 melanoma): > 100 µM
- GI50 (COLO 205 colon): 34 µM
- TGI (COLO 205 colon): > 100 µM
- GI50 (NCI/ADR-RES ovarian): 42.4 µM
- TGI (NCI/ADR-RES ovarian): > 100 µM
- GI50 (HT29 colon): 39.7 µM
- TGI (HT29 colon): > 100 µM
- GI50 (UACC-257 melanoma): 47.3 µM
- TGI (UACC-257 melanoma): > 100 µM
- GI50 (OVCAR-3 ovarian): 68.8 µM
- TGI (OVCAR-3 ovarian): > 100 µM
- GI50 (MDA-MB-435): > 63.7 µM
- TGI (MDA-MB-435): > 100 µM
- GI50 (SK-MEL-2 melanoma): > 57.2 µM
- TGI (SK-MEL-2 melanoma): > 100 µM
